Data from patent US9808504B2, “Immunogenic epitopes as targets for universal cancer vaccines” (Yale University, priority 2009, dated 2017).

Tested on: freshly isolated human PBMCs
Assay: Detection of OCT4 reactive T cells in fresh PBMCs: IP10 in culture supernatant by Luminex
Format: cell-based
Details: PBMCs of 10 healthy donors cultured with individual peptides, 48 h

Sequence | reactivity to individual peptides (fine specificity)
LQQISHIAQQLGLEK [compound 70] | hot-spots of promiscuous reactivity
NRRQKGKRSSSDYA [compound 76] | hot-spots of promiscuous reactivity
DVVRVWFCNRRQKGK [compound 74] | hot-spots of promiscuous reactivity
GLEKDVVRVWFCNRR [compound 73] | hot-spots of promiscuous reactivity
VQARKRKRTSIENRV [compound 62] | hot-spots of promiscuous reactivity
KRKRTSIENRVRGNL [compound 63] | hot-spots of promiscuous reactivity
VWFCNRRQKGKRSSS [compound 75] | hot-spots of promiscuous reactivity
SHIAQQLGLEKDVVR [compound 71] | hot-spots of promiscuous reactivity
AQQLGLEKDVVRVWF [compound 72] | hot-spots of promiscuous reactivity
RQKGKRSSSDYAQR [compound 77] | hot-spots of promiscuous reactivity
NMCKLRPLLQKWV [compound 54] | hot-spots of promiscuous reactivity
LSFKNMCKLRPLLQK [compound 53] | hot-spots of promiscuous reactivity
NLFLQCPKPTLQQIS [compound 67] | hot-spots of promiscuous reactivity
AETLVQARKRKRTSI [compound 61] | hot-spots of promiscuous reactivity
CKLRPLLQKWVEEA [compound 55] | hot-spots of promiscuous reactivity
EICKAETLVQARKRK [compound 60] | hot-spots of promiscuous reactivity
NRVRGNLENLFLQCP [compound 65] | hot-spots of promiscuous reactivity
